The values below are quoted from earlier work in US20240398763A1, “ORAL DOSAGE FORM CONTAINING ONCOLOGICAL ACTIVE INGREDIENT” (OWP Pharmaceuticals, Inc., priority 2023, published 2024).

SMILES strings stand for the structures. Converted amounts (≈) assume the structure as drawn. Where a name gives a salt, the structure may show the parent alone. Read-outs that look alike come from different tables or passages of the source.

Setting [1] is: in water / aqueous media, in words.

For the compound `CS(=O)(=O)CCNCc1ccc(-c2ccc3ncnc(Nc4ccc(OCc5cccc(F)c5)c(Cl)c4)c3c2)o1` [lapatinib], the Solubility (condition not given) was 7 µg/mL (≈ 12 µM).

As to `CCN1CCN(Cc2ccc(Nc3ncc(F)c(-c4cc(F)c5nc(C)n(C(C)C)c5c4)n3)nc2)CC1` [abemaciclib], the Solubility result under setting [1] is given as “insoluble in water”.

Regarding `CC(C)(O)CNc1nc(Nc2ccnc(C(F)(F)F)c2)nc(-c2cccc(C(F)(F)F)n2)n1` [enasidenib], the Solubility result runs as follows: (aqueous solutions across physiological pH range (pH 1.2 and 7.4)) “(solubility ≤74 mcg/mL)”; under setting [1], “practically insoluble”.

For `Sc1ncnc2nc[nH]c12` [mercaptopurine], under setting [1], the Solubility entry is recorded as “insoluble in water”.

In the case of `O=C(c1cc(Cc2n[nH]c(=O)c3ccccc23)ccc1F)N1CCN(C(=O)C2CC2)CC1` [olaparib], the Solubility entry under setting [1] was “low solubility”.

For `O=NN(CCCl)C(=O)NC1CCCCC1` [lomustine], the Solubility entry under setting [1] is reported as “insoluble in water”.

Consider `O=C(Nc1cnn2ccc(N3CCC[C@@H]3c3cc(F)ccc3F)nc12)N1CC[C@H](O)C1` [larotrectinib], for which, under “at 37° C., in words”, the Aqueous solubility result was “freely soluble at pH 6.8)”.

Regarding `C=CC(=O)Nc1cc(Nc2nccc(-c3cn(C)c4ccccc34)n2)c(OC)cc1N(C)CCN(C)C` [osimertinib], under setting [1], the Solubility entry is listed as “insoluble in water”.

As for `Cn1ncnc1[C@H]1c2n[nH]c(=O)c3cc(F)cc(c23)N[C@@H]1c1ccc(F)cc1` [talazoparib tosylate], the Solubility entry under setting [1] is given as “insoluble in water”.

In the case of `COC(=O)N[C@@H](C)CNc1nccc(-c2cn(C(C)C)nc2-c2cc(Cl)cc(NS(C)(=O)=O)c2F)n1` [encorafenib], the Solubility entry under setting [1] was “slightly soluble at pH 1,”.

As for `C=CC(=O)N1CC[C@H](n2nc(C#Cc3cc(OC)cc(OC)c3)c3c(N)ncnc32)C1` [futibatinib], the Solubility entry under setting [1] is “insoluble in water”.

As for `CC1=C(/C=C/C(C)=C/C=C/C(C)=C/C(=O)O)C(C)(C)CCC1` [tretinoin], the Solubility result under setting [1] is reported as “insoluble in water”.

Regarding `CNC(=O)c1ccccc1Sc1ccc2c(/C=C/c3ccccn3)n[nH]c2c1` [axitinib], the Solubility entry (aqueous media over the range pH 1.1 to pH 7.8) was “excess of 0.2 μg/mL”.
